Results on one molecule are retold here after paper PMC5901755 (ACS chemical neuroscience, 2016).

This assay has as its target T1, TREK-1 (Homo sapiens, UniProt O95069).
T1 sequence (O95069 1-426): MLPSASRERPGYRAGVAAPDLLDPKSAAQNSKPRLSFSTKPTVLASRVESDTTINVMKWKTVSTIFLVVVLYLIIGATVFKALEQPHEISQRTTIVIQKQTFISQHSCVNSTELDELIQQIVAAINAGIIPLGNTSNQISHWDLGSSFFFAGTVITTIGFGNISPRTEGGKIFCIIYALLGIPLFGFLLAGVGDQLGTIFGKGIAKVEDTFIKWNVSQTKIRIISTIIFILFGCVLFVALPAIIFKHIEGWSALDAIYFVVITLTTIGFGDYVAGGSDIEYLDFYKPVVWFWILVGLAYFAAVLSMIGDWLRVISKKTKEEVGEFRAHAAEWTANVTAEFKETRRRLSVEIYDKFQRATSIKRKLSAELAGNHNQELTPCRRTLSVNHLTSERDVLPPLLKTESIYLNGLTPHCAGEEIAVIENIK
Kind of assay: Tl+ flux fluorescence. The note with it: inhibitor; 1.8 µM, 10 min pretreatment; pH 7.3. Format: cell-based.

Consider `CCCCC[C@H](O)/C=C/[C@H]1CC[C@H](O)[C@@H]1C/C=C\CCCC(=O)O` [11-deoxy prostaglandin F2α], for which the “Tl+ flux fluorescence (Thallos), T-REx-HEK293” value is “we observed that 11-deoxy prostaglandin F2α inhibited TREK-1 channels”.
